Here are results for 8 compounds from patent US20230381321A1, “CAMPTOTHECIN CONJUGATES” (priority 2022, published 2023).

Like-named read-outs stand apart in the source and are kept apart here.

What is called IC50 is the concentration that inhibits the measured activity by half.

Holding throughout (type): cell-based
Assay [1] concerns anaplastic large cell lymphoma cells (DEL). As to the kind of experiment: In vitro potency (CellTiter-Glo, 96 h) on DEL. The note with it: 96 h, read-out: DEL IC50. As to the method:
(§1) In vitro potency was assessed on multiple cancer cell lines. All cell lines were authenticated by STR profiling at IDEXX Bioresearch and cultured for no more than 2 months after resuscitation. Cells cultured in log-phase growth were seeded for 24 hours in 96-well plates containing […] RPMI 1640 supplemented with 20% FBS. Serial dilutions of antibody-drug conjugates in cell culture media were prepared at 4x working concentrations, and 50 μL of each dilution was added to the 96-well plates. Following addition of test articles, cells were incubated with test articles for 4 days at […]. After 96 hours, growth inhibition was assessed by CellTiterGlo® (Promega, Madison, WI) and luminescence was measured on a plate reader.
(§2) Cell viability was determined by CellTiter-Glo staining after 96h exposure to ADC. ND=Not Determined. In the following tables, “Ex_” refers to a drug linker number. For example, “Ag4-Ex_4a” refers to a conjugate of an Ag4 antibody with drug linker 4a.
A general note: ATP-based viability assays read luminescence as a measure of living cells.

Assay [2] has as its system breast cancer cells (MDA-MB-231). As to the kind of experiment: In vitro potency (CellTiter-Glo, 96 h) on MDA-MB-231. The following applies: Homo sapiens, MDA-MB-231, 96 h, read-out: MDAMB 231 IC50. The procedure: as §1, §2
For assay [3], the system named is acute myeloid leukemia cells (MOLM-13). As to the kind of experiment: In vitro potency (CellTiter-Glo, 96 h) on MOLM-13. The following applies: Homo sapiens, MOLM-13, 96 h, read-out: MOLM-13 IC50. As to the method: as §1, §2
Assay [4] relates to anaplastic large cell lymphoma cells (DELBVR). As to the kind of experiment: In vitro potency (CellTiter-Glo, 96 h) on DELBVR. The following applies: 96 h, read-out: DELBVR IC50. The procedure: as §1, §2
For assay [5], the system named is anaplastic large cell lymphoma cells (Karpas299). As to the kind of experiment: In vitro potency (CellTiter-Glo, 96 h) on Karpas299. The following applies: Homo sapiens, KARPAS-299, 96 h, read-out: Karpas299 IC50. The procedure: as §1, §2
A short description of assay [6]: In vitro potency (CellTiter-Glo, 96 h) on Ls174T. The note with it: Homo sapiens, LS174T, read-out: Ls174T IC50. The procedure: as §1, §2
Assay [7] deals with pancreatic cancer cells (BxPC3). As to the kind of experiment: In vitro potency (CellTiter-Glo, 96 h) on BxPC3. The note with it: Homo sapiens, BXPC-3, 96 h, read-out: BxPC3 IC50. The procedure:
as §1, §2

The test system of assay [8] is B-lymphocyte cancer cells (SU-DHL4). As to the kind of experiment: In vitro potency (CellTiter-Glo, 96 h) on SU-DHL4. The following applies: Homo sapiens, SU-DHL-4, 96 h, read-out: SU-DHL-4 IC50. As to the method:
as §1, §2

For assay [9], the system named is Hodgkin's lymphoma cells (L540cy). As to the kind of experiment: In vitro potency (CellTiter-Glo, 96 h) on L540cy. The note with it: L540cy, 96 h, read-out: L540cy IC50. As to the method: as §1, §2
In assay [10] the test system is renal carcinoma cells (786-O). As to the kind of experiment: In vitro potency (CellTiter-Glo, 96 h) on 786-O. The following applies: Homo sapiens, 786-0, 96 h, read-out: 786-O IC50. The procedure:
as §1, §2

[11] abbreviates: CPT free drugs, CellTiter-Glo after 96 h exposure.

Regarding `CC[C@@]1(O)C(=O)OCc2c1cc1n(c2=O)Cc2c-1nc1cc3c(cc1c2CNC(C)=O)CCO3` [Compound 12], the IC50 in assay [1] was determined as 1 nM; in assay [2], 27 nM; in assay [3], 5 nM; in assay [4], 1 nM; in assay [5], 24 nM; in assay [6] (96 h) it was 19 nM. The IC50 in [7] was determined as 12 nM; in assay [8], 1 nM; in assay [9], 5 nM; in assay [10], 13 nM.

Regarding `CC[C@@]1(O)C(=O)OCc2c1cc1n(c2=O)Cc2c-1nc1cc(F)c(F)c(F)c1c2CN` [Compound 2ap], the IC50 in [1] (setting [11]) amounted to 1 nM; in assay [2] (setting [11]), 13 nM; in [3] (setting [11]) it was 5 nM; in assay [4] (setting [11]), 1 nM; in assay [5] (setting [11]), 5 nM; in [6] (setting [11]), 4 nM. Moreover, the IC50 came out at 14 nM in assay [7] (setting [11]), 2 nM in [8] (setting [11]), 2 nM in assay [9] (setting [11]) and 8 nM in assay [10] (setting [11]).

As to `CC[C@@]1(O)C(=O)OCc2c1cc1n(c2=O)Cc2c-1nc1cc3c(cc1c2CN1CCN(CCN)CC1)OCO3` [Compound 8c], the half-inhibitory concentration (IC50) came out at 3 nM in assay [1]; 57 nM in assay [2]; 69 nM in assay [3]; 4 nM in [4]; 28 nM in assay [5]; 32 nM in assay [6] (96 h). Also, the IC50 in assay [7] came to 14 nM; in assay [8] it was 7 nM; in [9], 14 nM; in assay [10], 27 nM.

Consider `CC[C@@]1(O)C(=O)OCc2c1cc1n(c2=O)Cc2c-1nc1cc3c(cc1c2CNC[C@H](O)CO)OCO3` [Compound 7n], for which the IC50 came to 5 nM in assay [1]; 96 nM in assay [2]; 137 nM in assay [3]; 6 nM in assay [4]; 57 nM in [5]; 39 nM in [6] (96 h). The IC50 in [7] was 47 nM; in assay [8], 21 nM; in assay [9], 23 nM; in assay [10] it was 66 nM.

Turning to `CC[C@@]1(O)C(=O)OCc2c1cc1n(c2=O)Cc2c-1nc1cc(F)c(C)c(Cl)c1c2CNC(C)=O` [Compound 12a], the IC50 in [1] was 0.2 nM; in [2], 2 nM; in assay [3] it was 1 nM; in assay [4] it was 0.2 nM; in assay [5], 1 nM; in assay [6] (96 h), 7 nM. The IC50 in assay [7] stood at 2 nM; in assay [8], 0.4 nM; in assay [9], 0.4 nM; in [10], 1 nM.

Take `CC[C@@]1(O)C(=O)OCc2c1cc1n(c2=O)Cc2c-1nc1cc3c(cc1c2CNCC(O)CN1CCOCC1)OCO3` (some centres unmarked) [Compound 7i]: the IC50 came to 9 nM in assay [1]; 183 nM in assay [2]; 183 nM in [3]; 17 nM in [4]; 84 nM in [5]; 110 nM in [6] (96 h). The concentration for half-maximal inhibition (IC50) in assay [7] was 57 nM; in assay [8], 32 nM; in assay [9] it was 48 nM; in [10], 118 nM.

On to `CC[C@@]1(O)C(=O)OCc2c1cc1n(c2=O)Cc2c-1nc1cc3c(cc1c2CNCCCN1CCN(C)CC1)OCO3` [Compound 7h], for which the IC50 was determined as 5 nM in assay [1]; 67 nM in assay [2]; 93 nM in assay [3]; 6 nM in assay [4]; 57 nM in [5]; 40 nM in assay [6] (96 h). Also, the IC50 in assay [7] worked out at 43 nM; in assay [8], 21 nM; in assay [9], 23 nM; in assay [10] it was 44 nM.

For `CC[C@@]1(O)C(=O)OCc2c1cc1n(c2=O)Cc2c-1nc1cc3c(cc1c2CNCCCN1CCNCC1)OCO3` [Compound 8d], the IC50 worked out at 2 nM in [1]; 25 nM in assay [2]; 37 nM in assay [3]; 2 nM in [4]; 9 nM in assay [5]; 19 nM in assay [6] (96 h). Moreover, the IC50 amounted to 14 nM in assay [7], 6 nM in assay [8], 6 nM in assay [9] and 15 nM in assay [10].
